Source: patent publication US7129271B2, “Compounds for pest control and methods for their use” (The United States of America as represented by the …, priority 2000, dated 2006)
≈ marks a conversion by molar mass, not a printed value. Like-named read-outs stand apart in the source and are kept apart here.

Assays:
[1] = test system: nymphal Ixodes scapularis; assay: Treated-vial biocidal screening, 2% acetone solutions (Example 2); assay type: in vivo; conditions: for I. scapularis nymphs (24 h), number killed/number tested: 2% acetone solution (wt./vol.) dried in vials; for I. scapularis nymphs (72 h), number killed/number tested: treated vials sat 72 h, arthropods added for final 24 h
Method: (§1) Samples of the compounds listed below Were obtained from Dr. Karchesy, a co-inventor, and screened for biocidal activities against nymphal Ixodes scapularis. In this example, 2% acetone solutions (wt./vol.) of the compounds were applied to inner surfaces of 2-dram friction cap vials. Vials and caps were treated then allowed to dry for a minimum of 4 hours before placing 10 nymphs in each container. These same vials were used to challenge additional nymphs and adult I. scapularis ticks and adult Xenopsylla cheopis fleas through five weeks to observe any possible residual activity.
(§2) Numbers in parentheses refer to length of treatment in terms of hours (h) or weeks (wk). Data is presented in terms of number killed/number tested. For test periods longer than 24 hours, the treated vials were allowed to sit for the stated period after drying (72 h, 4 wk, or 5 wk) and each group of arthropods was added to the vials for the final 24 h of the test period.

[2] = test system: adult I. scapularis ticks; assay: Treated-vial biocidal screening, residual challenge (Example 2); assay type: in vivo, Ixodes scapularis; conditions: treated vials sat 4 wk; arthropods added for final 24 h
Method: as §1, §2

X. cheopis adults = assay: Flea bioassay, treated vials (Example 9); assay type: in vivo; conditions: 24 h exposure, 95% CI in parentheses
Method: Flea Colonies. Adult X. cheopis fleas (1–3 wk old) were obtained from a colony founded more than eight years ago using adults received from Tom Schwan, Rocky Mountain Laboratories, Hamilton, Mont. The area from which these original adult fleas were obtained, and the resulting colony, have no known histories of pesticide exposure.
(§3) Tick and Flea Bioassays. Concentrations of the compounds were prepared by 2-fold serial dilutions of a 0.5% (wt:vol) solution of the extracts in acetone. […] A control treated with acetone only was run with each series. Tick and flea susceptibility was evaluated using a modified disposable pipette method. See, Barnard, D. R., et al., J. Econ. Entomol.
(§4) The inner surface of 2-dram friction cap vials were treated with the compound/acetone solution, or acetone only as a control, and left to air-dry overnight. Three to 4 holes were made in the plastic cap to allow for air exchange. Nymphal ticks and adult fleas were then placed directly into the vials using forceps. Vials containing ticks or fleas were placed in desiccators for 24 h at 21° C. and 90% RH. Morbidity and mortality was recorded at 1, 2, 4, 8, and 24 h after initial exposure.

[3] = test system: ticks, fleas, formicids and termites; assay: Persistence of biocidal activity, vials treated with 2% solutions (Example 5); assay type: in vivo
Method: as §1
Persistence of biocidal activity was determined for nootkatone and valencene-11,12-epoxide by using the vials as treated with the 2% solutions of Example 2. […] At 11 weeks, the biocidal activity began to dissipate below the 100% mortality level.

I. scapularis nymphs = assay: Tick bioassay, modified disposable pipette method, treated vials (Example 9); assay type: in vivo, Ixodes scapularis
Method: Tick Colonies. […] There was no known pesticide used at this location. Ticks were maintained at 21° C., 90% RH, and received a 16:8 h (light:dark) cycle as described in […]. Med. […] Tick and Flea Bioassays. […] A control treated with acetone only was run with each series. Tick and flea susceptibility was evaluated using a modified disposable pipette method. See, Barnard, D. R., et al., J. Econ. […] Three to 4 holes were made in the plastic cap to allow for air exchange. Nymphal ticks and adult fleas were then placed directly into the vials using forceps. Vials containing ticks or fleas were placed in desiccators for 24 h at 21° C. and 90% RH. […] For each time point, if ticks were incapable of movement, maintaining normal posture, leg coordination, ability to right themselves, or any signs of life, they were considered moribund or dead.

Aedes aegypti adults = assay: Residual activity, treated bottles aged before loading (Example 9); assay type: in vivo
Method: (§5) Mosquit Bioassay. Adult mosquitoes were tested using the bottle bioassay method of Brogden, W. G., and McAllister, J. C., J. Am. Mosq. Control Assoc. 14:159–64 (1998), with minor modifications. Natural product extracts were two-fold serially diluted for a total of 8 concentrations ranging from 0.002% to 0.25% in 1.5 ml of acetone. Individual dilutions were added to 250 ml Wheaton glass bottles and capped. Bottles were manipulated to evenly coat all inner surfaces. The caps were removed and bottles were allowed to air-dry overnight. Once bottles were completely dry, 10–50 adult mosquitoes were aspirated into the bottles. Mosquitoes were held in the bottles for 24 h at 23° C. and 85% RH. Morbidity and mortality were recorded at 15, 30, 45, and 60 min and 24 hour intervals. One bottle for each replicate was treated with acetone only and served as a control. The dose-mortality data was evaluated with probit analysis, using the LdP Line software, to determine LC50 and LC90 values.

Ae. aegypti adults = assay: Mosquito bottle bioassay (Example 9); assay type: in vivo; conditions: 24 h exposure, 95% CI in parentheses
Method: Mosquito Colonies. Aedes aegypti adult mosquitoes were obtained from an existing colony at the Centers for Disease Control and Prevention (CDC), Division of Vector-Borne Infectious Diseases (DVBID), Fort Collins, Colo. This colony has been maintained for over fifteen years with no known history of exposure to pesticides. Mosquitoes were reared at 28° C., 85% RH, and a 14:10 h (light:dark) cycle. Larvae were grown in de-ionized water and fed ground liver powder solution ad libitum. Fourth instars were removed and placed in emergence cages, and adults were fed a 2% sucrose solution until assayed. Adults were exposed to test products at 4–7 d after emergence.
as §5

[4] = test system: adult Xenopsylla cheopis fleas; assay: Treated-vial biocidal screening, residual challenge (Example 2); assay type: in vivo; conditions: treated vials sat 5 wk; arthropods added for final 24 h
Method: as §1, §2

nymphal I. scapularis = assay: Baseline dose-mortality, method of Maupin and Piesman 1994 (Example 7); assay type: in vivo; conditions: nymphal ticks
From the text: Baseline dose-mortalities were established for nymphal I. scapularis for nootkatone and valencene-11,12-epoxide using the method described in Maupin, G. O., and Piesman, J., J. Med. Entomol., 31:319–21 (1994).
A comparison of relative potency was made with published data for carbaryl and permethrin (Maupin and Piesman, 1994) and Alaska yellow cedar essential oil (Panella et al., J. Med. Entomol. 34:340–45 (1997) is presented in Table 6.

Ixodes scapularis nymphs = assay: Residual activity, treated vials aged before loading (Example 9); assay type: in vivo
Method: as §3, with “acetone. The approximate toxicity of individual compounds was determined with a total of 8 doses ranging from 0.002% to 0.25%.” for “acetone.”, “Entomol. 74:466–69 (1981).” for “Entomol.”
as §4, with “Groups of 10 nymphal I. scapularis and X. cheopis fleas were used in all tests, resulting in a total of 5,240 nymphs and 4,860 fleas exposed to the compounds. The” for “The”

[5] = test system: Xenopsylla cheopis adults; assay: as above; assay type: in vivo
Method: as §3, with “acetone. The approximate toxicity of individual compounds was determined with a total of 8 doses ranging from 0.002% to 0.25%.” for “acetone.”, “Entomol. 74:466–69 (1981).” for “Entomol.”
as §4, with “Groups of 10 nymphal I. scapularis and X. cheopis fleas were used in all tests, resulting in a total of 5,240 nymphs and 4,860 fleas exposed to the compounds. The” for “The”

[6] = test system: ticks, fleas, and mosquitoes; assay: Residual activity, overall statements for ticks, fleas and mosquitoes (Example 9); conditions: 1 to 4 weeks after treatment
[7] = test system: I. scapularis nymphs, X. cheopis adults, and Ae. aegypti adults; assay: Initial screening against all three arthropods (Example 9); assay type: in vivo; conditions: 24 hours exposure; ticks, fleas, mosquitoes
Method: Valencene-13-aldehyde was prepared by oxidation of valencene with SeO2. […] Commercial samples of nootkatone for comparison were obtained from Bedoukian Research, Inc., Danbury, Conn. (semi-synthetic crystalline) and Frutarom, Inc. N.J. (from grapefruit oil). […] The compounds identified by an asterisk—nos.

Culex p. pipiens = assay: Mosquito susceptibility, serial dilutions (Example 8); conditions: in vivo
[8] = 24 h exposure, 95% CI in parentheses
[9] = residual activity at 1 week after treatment
[10] = residual activity at 2 weeks after treatment
[11] = residual activity at 4 weeks after treatment
[12] = Aedes aegypti, 24 h, read-out: LC50

Row | Structure (SMILES) | I. scapularis nymphs (24 h), number killed/number tested [1] | I. scapularis nymphs (72 h), number killed/number tested [1] | I. scapularis adults (4 wk), number killed/number tested [2] | LC50 (X. cheopis adults) | LC50 (I. scapularis nymphs; [8]) | LC50 (Aedes aegypti adults; [9]) | LC90 (Aedes aegypti adults; [9]) | LC50 (Aedes aegypti adults; [10]) | LC90 (Aedes aegypti adults; [10]) | LC50 (Aedes aegypti adults; [11]) | LC90 (Aedes aegypti adults; [11]) | LC50 (Ae. aegypti adults; [12]) [µg/mL] | X. cheopis adults (5 wk), number killed/number tested [4] | LC50 (Ixodes scapularis nymphs; [9]) | LC90 (Ixodes scapularis nymphs; [9]) | LC50 (Ixodes scapularis nymphs; [10]) | LC90 (Ixodes scapularis nymphs; [10]) | LC50 (Ixodes scapularis nymphs; [11]) | LC90 (Ixodes scapularis nymphs; [11]) | residual activity (in words) [6] | further results
1 | C=C(C)[C@@H]1CCC2=CC(=O)C[C@@H](C)[C@]2(C)C1 [Compound 7, Nootkatone] | 10/10 | 5/5 | 5/5 | 0.0083 (0.0064–0.01) percent concentration, wt:vol | 0.0029 (0.0025–0.0034) percent concentration, wt:vol | 0.02 (0.014–0.029) percent concentration, wt:vol | 0.054 (0.041–0.105) percent concentration, wt:vol | 0.019 (0.016–0.022) percent concentration, wt:vol | 0.046 (0.037–0.061) percent concentration, wt:vol | 0.013 (0.011–0.015) percent concentration, wt:vol | 0.038 (0.031–0.051) percent concentration, wt:vol | 57 (≈ 261 µM) | 5/5 | 0.023 percent concentration, wt:vol | 0.13 percent concentration, wt:vol | 0.026 (0.018–0.039) percent concentration, wt:vol | 0.168 (0.094–0.448) percent concentration, wt:vol | 0.026 (0.018–0.039) percent concentration, wt:vol | 0.164 (0.093–0.429) percent concentration, wt:vol | considerable biological activity | mortality ([3]; 24 hour exposure at each test through 10 weeks, each group of arthropods): 100%; time at which biocidal activity began to dissipate below the 100% mortality level ([3]; vials treated with 2% solutions): 11 weeks; more effective than essential oil of Alaska yellow cedar (nymphal I. scapularis): about 98%; potency relative to essential oil of Alaska yellow cedar (nymphal I. scapularis): approximately 50 times; LC50 [5, 9]: 0.016 (0.012–0.02) percent concentration, wt:vol; LC90 [5, 9]: 0.05 (0.036–0.081) percent concentration, wt:vol; LC50 [5, 10]: 0.031 percent concentration, wt:vol; LC90 [5, 10]: 0.134 percent concentration, wt:vol; LC50 [5, 11]: 0.031 percent concentration, wt:vol
2 | COc1cc(C(C)C)ccc1C [Compound 3, Methyl carvacrol] | – | – | – | – | – | – | – | – | – | – | – | – | – | – | – | – | – | – | – | – | pesticidal activity in initial screening [7]: no pesticidal activity
3 | C=C(CO)C1CCC2=CCC[C@@H](C)[C@]2(C)C1 (stereo partly drawn) [Compound 10, 13-hydroxy-valencene] | – | – | – | – | – | 0.024 (0.02–0.028) percent concentration, wt:vol | 0.058 (0.046–0.081) percent concentration, wt:vol | 0.014 (0.012–0.016) percent concentration, wt:vol | 0.021 (0.019–0.027) percent concentration, wt:vol | 0.013 (0.0089–0.017) percent concentration, wt:vol | 0.04 (0.029–0.074) percent concentration, wt:vol | 34 (≈ 154 µM) | – | 0.0071 (0.0055–0.0091) percent concentration, wt:vol | 0.019 (0.014–0.031) percent concentration, wt:vol | 0.0083 (0.0057–0.011) percent concentration, wt:vol | 0.044 (0.029–0.081) percent concentration, wt:vol | 0.031 percent concentration, wt:vol | 0.303 percent concentration, wt:vol | considerable biological activity | LC50 (X. cheopis adults; Xenopsylla cheopis, 24 h, read-out: LC50): 83 µg/mL (≈ 377 µM); LC90 (X. cheopis adults; Xenopsylla cheopis, 24 h, read-out: LC90): 210 µg/mL (≈ 953 µM); LC50 (I. scapularis nymphs; Ixodes scapularis, 24 h): 51 µg/mL (≈ 231 µM); LC90 (I. scapularis nymphs; Ixodes scapularis, 24 h, 24 h exposure, 95% CI in parentheses, read-out: LC90): 160 µg/mL (≈ 726 µM); EC90 (Ae. aegypti adults; Aedes aegypti, 24 h, read-out: LC90 (the source's name)): 140 µg/mL (≈ 635 µM); LC50 [5, 9]: 0.03 (0.022–0.041) percent concentration, wt:vol; LC90 [5, 9]: 0.113 (0.074–0.226) percent concentration, wt:vol; LC50 [5, 10]: 0.039 (0.029–0.053) percent concentration, wt:vol; LC90 [5, 10]: 0.131 (0.087–0.268) percent concentration, wt:vol; C. pipiens LD50 (Culex p. pipiens): < 4.5×10^−3
4 | C=C(C)C1CC=C2C=CCC(C)C2(C)C1 (stereo not drawn) [Compound 6, Nootkatene] | 10/10 | 4/5 | 0/5 | 0.017 (0.012–0.024) percent concentration, wt:vol | 0.011 (0.0086–0.014) percent concentration, wt:vol | 0.132 (0.096–0.236) percent concentration, wt:vol | 0.659 (0.329–2.855) percent concentration, wt:vol | – | – | – | – | – | 0/5 | 2.062 percent concentration, wt:vol | 524.656 percent concentration, wt:vol | – | – | – | – | nearly inactive | LC90 (X. cheopis adults): 0.075 (0.049–0.151) percent concentration, wt:vol; LC50 (X. cheopis adults; listed as compound 6): 0.017 percent concentration, wt:vol; LC90 (I. scapularis nymphs; [8]): 0.06 (0.043–0.098) percent concentration, wt:vol; LC50 (I. scapularis nymphs; 24 h exposure, 95% CI in parentheses, listed as compound 6): 0.011 percent concentration, wt:vol; LC50 (Ae. aegypti adults): 0.027 percent concentration, wt:vol; LC90 (Ae. aegypti adults): 0.059 percent concentration, wt:vol; residual activity (in words) ([6]; listed as compound 6): did not demonstrate any residual activity after one week
